{"source": "patent US6423693B1", "about": "“Growth hormone releasing hormone expression system and methods of use, including use in animals” (Baylor College of Medicine, priority 1997, dated 2002)", "key": {"[1]": {"system": "GH release", "conditions": "synthetic molecules, Ling et al 1984; cited from earlier work"}, "[2]": {"system": "primary pig anterior pituitary cells", "assay": "GH release from primary pig anterior pituitary culture challenged with conditioned media", "type": "cell-based", "conditions": "24 h stimulation at 37 C; media from 1 million primary pig myoblasts or media mixed with 10 ng synthetic peptide", "procedure": "Primary pig myoblasts culture was obtained as described (Doumit & Merkel, 1992, Tissue & Cell 24:253-262). The cells were plated at a density of 1 million cells/100 mm plate and maintained in growth media for 2-3 days. The cells were passed for 2 times prior to transfection. The transfection and differentiation was made in the same conditions as for the primary chicken myoblast culture. The media and cells were harvested for analysis 48, 72 and 96 h postdifferentiation in both cases. The efficiency of transfection estimated by β-galactosidase histochemistry on control plates was 10%.\nOne day before harvesting, cells were washed twice in HBSS and changed in MEM, 0.1% BSA. The collected media was conditioned by adding ¼ volumes of 1% triflouroacetic acid (TFA) and 0.001% phenylmethylsulfonylflouride (PMSF), frozen at −80° C., lyophilized, purified on C-18 Sep-Columns (Peninsula Laboratories, CA, USA), relyophilized and used in RIA or resuspended in media conditioned for primary pig anterior pituitary culture. […]\nB. In vitro activity of pSK-GHRH. Since anterior pituitary is the natural target of GHRH stimulation, we determined the biological activity of secreted GHRH from the media of pSK-GHRH transfected primary pig myoblasts (FIG. 8). […]"}, "[3]": {"conditions": "cited from earlier work"}}, "note": "No end group written: not given here."}
{"substance": "hGHRH(1-44)OH: non-amidated human GHRH (1-44), Tyr1 to Leu44; the molecule expressed by pSK-GHRH (YADAIFTNSYRKVLGQLSARKLLQDIMSRQQGESNQERGARARL-OH; UniProt P01286 32-75, looked up)", "values": [{"measurement": "less effective in releasing GH than the (1-44) amidated form", "setting": "[1]", "result": 30, "unit": "%"}]}
{"substance": "hGHRH (1-44)NH2: synthetic amidated human growth hormone releasing hormone (1-44) (YADAIFTNSYRKVLGQLSARKLLQDIMSRQQGESNQERGARARL-NH2; UniProt P01286 32-75, looked up)", "values": [{"measurement": "GH release", "setting": "[2]", "result": "115 ± 3.2", "unit": "ng/mL"}]}
{"substance": "hGHRH(1-40)OH: Human 1-40 OH growth hormone releasing hormone (YADAIFTNSYRKVLGQLSARKLLQDIMSRQQGESNQERGA-OH)", "values": [{"measurement": "potency in vivo relative to hGHRH(1-44)NH2", "setting": "[3]", "result": "same potency in vivo as hGHRH(1-44)NH2"}]}
